Values of other authors, collected in patent publication US20100068291A1, “Oral Medicament Based on a Proton Pump Inhibitor” (FLAMEL TECHNOLOGIES, S.A., priority 2005, published 2010).

Conditions: in vivo

plasma half-life: 0.5-1 H
Compound: COc1ccc2[nH]c([S+]([O-])Cc3ncc(C)c(OC)c3C)nc2c1 (stereo not shown) [omeprazole]
